Reference: ChEMBL document CHEMBL1697781, “Assessment of the health effects of chemicals in humans: II. Construction of an adverse effects database for QSAR modeling” (Curr Drug Discov Technol, 2004)

Key:
Settings in all cases: human; call rule not given here
Hepatotoxicity [1] = experiment: FDA HLAED, gamma-glutamyl transferase (GGT) increase
Hepatotoxicity [2] = experiment: FDA HLAED, lactate dehydrogenase (LDH) increase
Hepatotoxicity [3] = experiment: FDA HLAED, liver enzyme composite activity
Hepatotoxicity [4] = experiment: FDA HLAED, serum glutamic pyruvic transaminase (SGPT) increase
Hepatotoxicity [5] = experiment: FDA HLAED, serum glutamic oxaloacetic transaminase (SGOT) increase
Hepatotoxicity [6] = experiment: FDA HLAED, alkaline phosphatase increase

Compound	GGT Increase - Activity Score (Hepatotoxicity [1])	GGT Increase - Number of Reports (Hepatotoxicity [1])	LDH Increase - Activity Score (Hepatotoxicity [2])	LDH Increase - Index Value (Hepatotoxicity [2])	LDH Increase - Number of Reports (Hepatotoxicity [2])	Composite Activity - Active (Hepatotoxicity [3])	Composite Activity - Marginal (Hepatotoxicity [3])	Composite Activity - Score (Hepatotoxicity [3])	SGPT Increase - Activity Score (Hepatotoxicity [4])	SGPT Increase - Index Value (Hepatotoxicity [4])	SGPT Increase - Number of Reports (Hepatotoxicity [4])	SGOT Increase - Activity Score (Hepatotoxicity [5])	SGOT Increase - Index Value (Hepatotoxicity [5])	SGOT Increase - Number of Reports (Hepatotoxicity [5])	Alkaline Phosphatase Increase - Activity Score (Hepatotoxicity [6])	Alkaline Phosphatase Increase - Index Value (Hepatotoxicity [6])	Alkaline Phosphatase Increase - Number of Reports (Hepatotoxicity [6])	further results
FC(F)OC(F)C(F)(F)F (stereo not given)	Inactive	< 4	Inactive	0.5	< 4	0	0	Inactive	Inactive	0.8	< 4	Inactive	1.3	>= 4	Inactive	0.3	< 4	GGT Increase - Index Value (Hepatotoxicity [1]): 0.5
COc1ccc(CCN(C)CCCC(C#N)(c2ccc(OC)c(OC)c2)C(C)C)cc1OC (stereo not given)	Inactive	< 4	Inactive	–	< 4	0	0	Inactive	Inactive	–	< 4	–	–	–	Inactive	–	>= 4	–
Cn1cnc([N+](=O)[O-])c1Sc1ncnc2nc[nH]c12 [AZATHIOPRINE]	Marginally Active	>= 4	–	–	–	–	–	–	Active	5.6	>= 4	Active	5	>= 4	Active	4.5	>= 4	GGT Increase - Index Value (Hepatotoxicity [1]): 3.3; Composite Activity - Active (Hepatotoxicity [3]; Liver): 3; Composite Activity - Marginal (Hepatotoxicity [3]; Liver): 1; Composite Activity - Score (Hepatotoxicity [3]; Liver): Active
O=NN(CCCl)C(=O)NCCCl [CARMUSTINE]	–	–	Active	14.6	>= 4	1	0	–	–	–	–	–	–	–	–	–	–	–
O=P1(N(CCCl)CCCl)NCCCO1 (stereo not given) [CYCLOPHOSPHAMIDE ANHYDROUS]	–	–	Active	8.5	>= 4	–	–	–	Active	8.5	>= 4	Active	8.5	>= 4	Active	4.6	>= 4	Composite Activity - Active (Hepatotoxicity [3]; Liver): 4; Composite Activity - Marginal (Hepatotoxicity [3]; Liver): 0; Composite Activity - Score (Hepatotoxicity [3]; Liver): Active
O=c1[nH]cc(F)c(=O)[nH]1 [FLUOROURACIL]	–	–	Marginally Active	3.6	>= 4	1	1	–	–	–	–	–	–	–	Active	5.5	>= 4	–
COC1=CC(=O)C[C@@H](C)[C@]12Oc1c(Cl)c(OC)cc(OC)c1C2=O [GRISEOFULVIN]	Active	< 4	–	–	–	4	0	Active	Active	6.9	>= 4	Active	5.5	>= 4	Active	5.5	>= 4	GGT Increase - Index Value (Hepatotoxicity [1]): 5.5
CN(Cc1cnc2nc(N)nc(N)c2n1)c1ccc(C(=O)N[C@@H](CCC(=O)O)C(=O)O)cc1 [METHOTREXATE]	–	–	Marginally Active	3.5	>= 4	2	1	Active	Active	6.4	>= 4	Active	5.3	>= 4	–	–	–	–
NC1=NC(=O)C(c2ccccc2)O1 (stereo not given) [PEMOLINE]	–	–	Active	6.2	>= 4	4	0	Active	Active	23.5	>= 4	Active	22.7	>= 4	Active	14	>= 4	–
NC(=O)c1ncn([C@@H]2O[C@H](CO)[C@@H](O)[C@H]2O)n1 [RIBAVIRIN]	Inactive	< 4	–	–	–	0	0	Inactive	Inactive	–	< 4	Inactive	–	< 4	Inactive	–	< 4	–
CO[C@H]1/C=C/O[C@@]2(C)Oc3c(C)c(O)c4c(O)c(c(/C=N/N5CCN(C)CC5)c(O)c4c3C2=O)NC(=O)/C(C)=C\C=C\[C@H](C)[C@H](O)[C@@H](C)[C@@H](O)[C@@H](C)[C@H](OC(C)=O)[C@@H]1C [RIFAMPIN]	–	–	Marginally Active	No Shipping Units	>= 4	1	3	Marginally Active	Marginally Active	No Shipping Units	>= 4	Active	No Shipping Units	>= 4	Marginally Active	No Shipping Units	>= 4	–
CC(C)c1nc(CN(C)C(=O)N[C@H](C(=O)N[C@@H](Cc2ccccc2)C[C@H](O)[C@H](Cc2ccccc2)NC(=O)OCc2cncs2)C(C)C)cs1 [RITONAVIR]	–	>= 4	–	–	>= 4	–	–	–	–	–	>= 4	–	–	>= 4	–	–	>= 4	–
